pIC50, pKi: −log10 of the molar value.
Columns and labels:
[1] = molecular target: T1, B1 bradykinin receptor (Homo sapiens, UniProt P46663); test: Antagonist activity at human bradykinin B1 receptor in IL1-beta stimulated IMR90 cells by FLIPR assay; format: functional, cell-based, IMR-90
T1 sequence (P46663 whole entry): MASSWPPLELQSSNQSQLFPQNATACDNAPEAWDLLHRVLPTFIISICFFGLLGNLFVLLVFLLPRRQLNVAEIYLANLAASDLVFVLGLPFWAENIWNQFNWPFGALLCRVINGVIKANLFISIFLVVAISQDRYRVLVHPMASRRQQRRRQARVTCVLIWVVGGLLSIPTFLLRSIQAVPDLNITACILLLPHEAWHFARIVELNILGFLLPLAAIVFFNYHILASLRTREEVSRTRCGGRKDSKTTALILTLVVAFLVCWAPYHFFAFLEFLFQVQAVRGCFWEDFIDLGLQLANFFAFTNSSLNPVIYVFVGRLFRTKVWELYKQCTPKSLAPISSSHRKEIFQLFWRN

[2] = molecular target: T1, B1 bradykinin receptor; test: Displacement of [3H]DAKA from human bradykinin B1 receptor in IL1-beta stimulated IMR90 cells; format: cell-based, IMR-90

Compound	pIC50 [1]	pKi [2]
O=C(Nc1ccccc1)c1cc(NC(=O)c2ccccc2Cl)[nH]n1	< 5.00	–
Cc1c(C(=O)Nc2ccccc2)n[nH]c1NC(=O)c1ccccc1Cl	5.70	–
NC(=O)[C@@H](NC(=O)c1n[nH]c(NC(=O)c2ccccc2Cl)c1Br)c1ccccc1	5.77	–
CC(=O)Nc1[nH]nc(C(=O)NC2N=C(c3ccccc3)c3ccccc3NC2=O)c1Br (configuration not stated)	< 5.00	–
COc1ccc(-n2nc(C(=O)NCCC3CCN(c4ccncc4)CC3)c(Br)c2NC(=O)c2ccccc2Cl)cc1	5.92	–
CN(C)CCn1nc(C(=O)NCCC2CCN(c3ccncc3)CC2)c(Br)c1NC(=O)c1ccccc1Cl	5.80	–
O=C(Nc1c(Br)c(C(=O)N[C@@H]2CCCCNC2=O)nn1-c1ccccc1)c1ccccc1Cl	< 5.00	–
CC(C)(C)c1ccc(-c2n[nH]c(NC(=O)c3ccccc3Cl)c2Br)cc1	5.49	–
O=C(Nc1c(Br)c(C(=O)N[C@@H]2N=C(c3ccccc3)c3ccccc3NC2=O)nn1-c1ccccc1)c1ccccc1Cl	< 5.00	–
O=C(Nc1[nH]nc(C(=O)NC2N=C(c3ccccc3)c3ccccc3NC2=O)c1Br)c1ccccc1 (configuration not stated)	7.31	–
O=C(Nc1[nH]nc(C(=O)Nc2ccccc2)c1Cl)c1ccccc1Cl	6.15	–
O=C(Nc1[nH]nc(C(=O)NC2N=C(c3ccccc3)c3ccccc3NC2=O)c1Br)c1ccccc1F (configuration not stated)	8.00	–
CC(C)C(=O)Nc1[nH]nc(C(=O)NC2N=C(c3ccccc3)c3ccccc3NC2=O)c1Br (configuration not stated)	6.19	–
Cc1nc(-c2n[nH]c(NC(=O)c3ccccc3Cl)c2Br)cs1	5.96	–
O=C(Nc1[nH]nc(C(=O)N[C@@H]2CN3CCC2CC3)c1Br)c1ccccc1Cl	7.22	–
O=C(Nc1[nH]nc(C(=O)NC2N=C(c3ccccc3)c3ccccc3NC2=O)c1Br)c1ccccc1Cl (racemic)	8.28	–

Now from value to compound:

pIC50 [1]	pKi [2]	Compound
6.19	–	Cn1nc(NC(=O)c2ccccc2Cl)c(Br)c1C(=O)NCCC1CCN(c2ccncc2)CC1
7.92	–	O=C(Nc1c(Br)c(C(=O)NCCC2CCN(c3ccncc3)CC2)nn1-c1ccccn1)c1ccccc1Cl
7.64	–	O=C(Nc1[nH]nc(C(=O)NCCC2CCN(c3ccncc3)CC2)c1F)c1ccccc1Cl
8.03	–	Cc1c(C(=O)NCCC2CCN(c3ccncc3)CC2)n[nH]c1NC(=O)c1ccccc1Cl
6.54	7.14	COC(=O)[C@@H](NC(=O)c1n[nH]c(NC(=O)c2ccccc2Cl)c1Br)c1ccccc1
7.36	–	Cn1nc(C(=O)NCCC2CCN(c3ccncc3)CC2)c(Br)c1NC(=O)c1ccccc1Cl
6.31	6.92	O=C(Nc1[nH]nc(C(=O)NCCc2ccncc2)c1Br)c1ccccc1Cl
7.89	–	Nc1cccc(N2CCC(CNC(=O)c3n[nH]c(NC(=O)c4ccccc4Cl)c3Br)CC2)n1
6.49	–	CN1CCC(N2CCC(CCNC(=O)c3nn(-c4ccccc4)c(NC(=O)c4ccccc4Cl)c3Br)CC2)CC1
7.07	–	CN1CCC(CCNC(=O)c2n[nH]c(NC(=O)c3ccccc3Cl)c2Br)CC1
7.09	–	CC[C@@H](NC(=O)c1n[nH]c(NC(=O)c2ccccc2Cl)c1Br)C(=O)N(C)C
6.54	–	O=C(Nc1[nH]nc(C(=O)N[C@@H]2CCCCNC2=O)c1Br)c1ccccc1Cl
6.68	–	C[C@@H](NC(=O)c1n[nH]c(NC(=O)c2ccccc2Cl)c1Br)c1ccccc1
7.15	–	O=C(Nc1c(Br)c(C(=O)NCCC2CCN(c3ccncc3)CC2)nn1Cc1ccccc1)c1ccccc1Cl
8.46	–	O=C(Nc1c(Br)c(C(=O)NCCC2CCN(c3ccncc3)CC2)nn1-c1ccccc1)c1ccccc1Cl
6.70	–	O=C(NCCC1CCN(c2ccncc2)CC1)c1cc(NC(=O)c2ccccc2Cl)[nH]n1
8.41	–	O=C(Nc1[nH]nc(C(=O)NCCC2CCN(c3ccncc3)CC2)c1Cl)c1ccccc1Cl
10.12	–	O=C(Nc1[nH]nc(C(=O)Nc2ccc(CCC3=NCCN3)cc2)c1Br)c1ccccc1Cl
7.80	–	C[C@@H](NC(=O)c1n[nH]c(NC(=O)c2ccccc2Cl)c1Br)C(=O)N1CCCCC1
6.25	–	O=C(Nc1[nH]nc(C(=O)Nc2ccncc2)c1Br)c1ccccc1Cl
6.28	6.70	O=C(Nc1[nH]nc(C(=O)Nc2ccccc2)c1Br)c1ccccc1Cl
8.74	–	CN1CCC(N2CCC(CCNC(=O)c3n[nH]c(NC(=O)c4ccccc4Cl)c3Br)CC2)CC1
8.52	–	O=C(Nc1[nH]nc(C(=O)NCCC2CCN(c3ccncc3)CC2)c1Br)c1ccccc1Cl

Reference: ChEMBL document CHEMBL1148820, “Preparation and optimization of a series of 3-carboxamido-5-phenacylaminopyrazole bradykinin B1 receptor antagonists” (J Med Chem, 2007)
